For data set [1], the target named is S. aureus DNA gyrase (Staphylococcus aureus, UniProt P0A0K8+P20831). In words: biochemical. Particulars: supercoiling of relaxed pBR322. As for the experimental part: The enzymatic assay was carried using commercial topoisomerases type II as previously described by Alt et al.[55] with some modifications.
Briefly, 1 U of the enzyme (gyrase or topo IV, Inspiralis. Norwich, UK) isolated from S. aureus converts […] of relaxed pBR322 DNA to the supercoiled form (gyrase) or decatenates 200 ng of kinetoplast DNA (topo IV). […] The reactions were terminated by adding an equal volume of STEB buffer (40% sucrose, 100 mM Tris–HCl pH 8, 10 mM EDTA, and 0.5 mg/mL bromophenol blue), followed by extraction with 1 volume of chloroform/isoamyl alcohol (24:1). The samples were vortexed and centrifuged, and 20 μL of the aqueous phase of each sample was loaded onto a 1% agarose gel and left for 30 min prior to electrophoresis to allow diffusion of salt. […] Gels were stained with ethidium bromide and visualized under UV light in a transilluminator (ChemiDoc MP, Bio Rad).

The target in data set [2] is T1, S. aureus topoisomerase IV (Staphylococcus aureus, UniProt P0C1S7+P0C1U9).
T1 construct: purchased Inspiralis, Norwich, UK
T1 sequence (P0C1U9 whole entry): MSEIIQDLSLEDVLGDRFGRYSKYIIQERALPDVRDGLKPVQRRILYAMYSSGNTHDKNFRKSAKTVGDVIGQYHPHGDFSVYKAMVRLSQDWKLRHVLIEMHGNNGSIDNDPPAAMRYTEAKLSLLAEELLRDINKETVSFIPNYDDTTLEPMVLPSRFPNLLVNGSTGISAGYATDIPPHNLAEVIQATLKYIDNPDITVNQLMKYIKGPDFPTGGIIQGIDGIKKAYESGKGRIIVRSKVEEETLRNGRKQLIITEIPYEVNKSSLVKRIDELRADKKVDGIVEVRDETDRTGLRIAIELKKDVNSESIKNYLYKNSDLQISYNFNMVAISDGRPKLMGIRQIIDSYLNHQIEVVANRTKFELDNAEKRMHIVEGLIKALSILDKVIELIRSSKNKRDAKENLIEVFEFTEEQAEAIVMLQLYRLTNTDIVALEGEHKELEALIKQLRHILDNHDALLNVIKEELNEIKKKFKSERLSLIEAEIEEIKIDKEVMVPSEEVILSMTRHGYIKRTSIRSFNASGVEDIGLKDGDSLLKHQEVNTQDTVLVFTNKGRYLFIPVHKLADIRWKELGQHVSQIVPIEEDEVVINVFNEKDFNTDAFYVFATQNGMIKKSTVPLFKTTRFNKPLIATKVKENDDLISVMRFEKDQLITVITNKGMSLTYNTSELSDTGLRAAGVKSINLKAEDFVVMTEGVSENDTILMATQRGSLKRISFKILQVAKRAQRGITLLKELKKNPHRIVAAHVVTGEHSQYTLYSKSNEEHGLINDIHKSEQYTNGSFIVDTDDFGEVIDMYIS
T1 sequence (P0C1S7 whole entry): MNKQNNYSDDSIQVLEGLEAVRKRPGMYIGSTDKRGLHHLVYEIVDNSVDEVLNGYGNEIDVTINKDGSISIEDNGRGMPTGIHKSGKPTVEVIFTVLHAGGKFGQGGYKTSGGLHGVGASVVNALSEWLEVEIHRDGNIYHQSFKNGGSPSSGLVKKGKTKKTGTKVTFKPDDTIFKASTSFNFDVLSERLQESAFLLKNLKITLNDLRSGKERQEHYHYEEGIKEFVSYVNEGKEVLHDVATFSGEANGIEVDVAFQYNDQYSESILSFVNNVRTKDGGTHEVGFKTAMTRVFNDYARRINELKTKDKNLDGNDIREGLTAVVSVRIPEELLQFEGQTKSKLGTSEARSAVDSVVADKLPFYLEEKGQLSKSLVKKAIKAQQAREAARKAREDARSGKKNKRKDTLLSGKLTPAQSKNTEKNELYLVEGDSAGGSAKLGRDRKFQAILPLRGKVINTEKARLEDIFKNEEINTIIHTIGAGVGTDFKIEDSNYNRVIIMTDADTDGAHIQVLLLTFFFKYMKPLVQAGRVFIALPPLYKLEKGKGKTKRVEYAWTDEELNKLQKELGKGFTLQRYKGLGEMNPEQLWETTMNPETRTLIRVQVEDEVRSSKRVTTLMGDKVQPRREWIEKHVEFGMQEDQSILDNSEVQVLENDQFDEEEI
In words: Topoisomerase IV decatenation assay. Conditions: decatenation of kinetoplast DNA; read-out: IC50 S. aureus topoisomerase IV (converted). It is filed as biochemical.
Procedure: Briefly, 1 U of the enzyme (gyrase or topo IV, Inspiralis. Norwich, UK) isolated from S. aureus converts 0.5 mg of relaxed pBR322 DNA to the supercoiled form (gyrase) or decatenates 200 ng of kinetoplast DNA (topo IV). […] The reactions were terminated by adding an equal volume of STEB buffer (40% sucrose, 100 mM Tris–HCl pH 8, 10 mM EDTA, and 0.5 mg/mL bromophenol blue), followed by extraction with 1 volume of chloroform/isoamyl alcohol (24:1). The samples were vortexed and centrifuged, and 20 μL of the aqueous phase of each sample was loaded onto a 1% agarose gel and left for 30 min prior to electrophoresis to allow diffusion of salt. […] Gels were stained with ethidium bromide and visualized under UV light in a transilluminator (ChemiDoc MP, Bio Rad).

Data set [3] concerns P. aeruginosa ATCC 15442. In words: Bacterial growth curve assay (OD600, 18 h). It is filed as cell-based, Pseudomonas aeruginosa. Particulars: P. aeruginosa ATCC 15442, 18 h.
For data set [4], the system named is E. coli ATCC 25922. In words: Bacterial growth curve assay (OD600, 18 h). It is filed as cell-based, Escherichia coli. Particulars: E. coli ATCC 25922, 18 h.
In data set [5] the test system is E. coli ATCC 25922 biofilm. In words: Biofilm eradication assay (crystal violet). It is filed as cell-based, Escherichia coli. Particulars: 4 MIC. On the procedure: (§1) Three bacterial strains E. coli ATCC 25922, P. aeruginosa ATCC 15442, and S. aureus ATCC 6538 were used to assign biofilm eradication properties of compounds 5, 10, 11, and CP as the reference drug. To quantify the biomass of the bacteria biofilm, the crystal violet method was used with some modifications.[52] The bacteria were incubated to the mid-log phase, diluted to 103 cfu/mL in brain–heart infusion medium, and seeded in a 96-well plate. Bacterial biofilms were formed by overnight incubation at 37 °C with rotation at 140 rpm. After biofilm formation, all wells were washed with PBS to remove nonadherent bacteria cells. […] The biofilms with tested substances were incubated for 20 h at 37 °C with shaking at 140 rpm. The bacterial biofilm was stained with 0.1% (v/v) CV for 10 min. Afterward, the biofilm was rinsed with PBS and dried. To solubilize the adsorbed crystal violet, wells with stained biofilms were incubated in 30% acetic acid. To estimate the total biofilm biomass, optical density (OD) of the resulting solution was measured at 595 nm. Biofilm assays were repeated at least three times on different days, with two technical replicates assessed each time. A minimum eradication concentration (MBEC) was determined as the lowest concentration of compound, which could damage ≥50% of the formed biofilm structure.

Data set [6] has as its system S. aureus ATCC 6538 biofilm. In words: Biofilm eradication assay (crystal violet). It is filed as cell-based, Staphylococcus aureus. Particulars: 4–2 MIC. As for the experimental part:
as §1

The subject of data set [7] is Staphylococci (standard strains). In words: MIC, standard Gram-positive strains as a panel. In kind it is cell-based, S. aureus, S. epidermidis. Conditions: standard Gram-positive strains of Table 1.
In data set [8] the test system is P. aeruginosa ATCC 15442 and E. coli ATCC 25922. In words: MIC, standard Gram-negative rods as a panel. Conditions: P. aeruginosa ATCC 15442, E. coli ATCC 25922; for MIC: read-out: MIC against standard Gram-negative rods (range over strains). In kind it is cell-based.
Data set [9] concerns M. tuberculosis Spec 210. In words: microbe, parasite or virus in culture. It is filed as cell-based, Mycobacterium tuberculosis. Conditions: M. tuberculosis Spec. 210.
Data set [10] is described as follows: Trypan blue exclusion assay. Conditions: human; HaCaT, 72 h, compound at IC50. It is filed as cell-based, human. The text has this:
(§2) To monitor cell proliferation in response to long-term conjugate treatment, the trypan-blue exclusion assay was further performed. […] Thus, they exerted a cytostatic effect on them, suppressing their growth and proliferation. […]. […] […].
(§3) Figure 9 Trypan blue assay. The effect of compounds 3, 15, and 21 on cell number in PC3 and HaCaT cells. […] Data are expressed as the mean ± SD. ***p ≤ 0.001, **p ≤ 0.002, and *p ≤ 0.01, as compared to the control.
(§4) Figure 10 Trypan blue assay. The effect of compounds 3, 15, and 21 on viability in PC3 and HaCaT cells. […] Data are expressed as the mean ± SD. ***p ≤ 0.001, **p ≤ 0.01, and *p ≤ 0.05, as compared to the control.

For data set [11], the system named is HaCaT cells. In words: Trypan blue exclusion assay. In kind it is cell-based, human.
Text: as §2, §3, §4

Data set [12] has as its system PC3 cells. In words: Trypan blue exclusion assay. It is filed as cell-based, human.
Text: as §2, §3, §4

Data set [13] concerns HaCaT cells. In words: Annexin V-FITC/PI binding assay, flow cytometry. Particulars: 72 h, IC50 concentration. In kind it is cell-based, human. On the procedure: (§5) The PC3 and HaCaT cells were cultured and harvested under the conditions mentioned in the Cell Culture section and seeded in 12-well plates (1 × 10^5 cells per well). […] The apoptotic effect was performed using the annexin V-FITC/propidium iodide (PI) apoptosis assay kit (Becton Dickinson, Pharmingen) according to the manufacturer’s instructions and analyzed by flow cytometry (Becton Dickinson). The cells which were annexin V-FITC-positive and PI-negative were identified as early apoptotic and both annexin V-FITC- and PI-positive as late apoptotic or necrotic. The experiment was repeated three times.
A general note: In flow cytometry, cells or beads pass a laser one at a time.

The subject of data set [14] is PC3 cells. In words: Annexin V-FITC/PI binding assay, flow cytometry. Particulars: IC50 concentration. In kind it is cell-based, human. As for the experimental part: as §5
Data set [15] concerns IL-6 level in HaCaT cells. In words: Interleukin-6 ELISA. It is filed as cell-based, human. Conditions: IC50 concentration, 72 h. On the procedure:
(§6) The level of interleukin-6 (IL-6) in PC3 and HaCaT cell lines was measured by commercial human IL-6 ELISA kits Diaclon SAS (Besancon Cedex, France). […] The untreated cells were used as the control. The IL-6 level in a cell culture supernatant was measured using an enzyme-linked immunosorbent assay in accordance with the manufacturer’s instruction. The experiment was repeated three times.
(An ELISA detects its analyte on a solid surface through an enzyme-linked reagent.)

For data set [16], the system named is IL-6 level in PC3 cells. In words: Interleukin-6 ELISA. It is filed as cell-based, human. Conditions: PC3, IC50 concentration, 72 h. As for the experimental part: as §6

Converted amounts (≈) assume the structure as drawn. Some results are limits rather than exact numbers.

S. aureus DNA gyrase, sequence (P0A0K8 whole entry): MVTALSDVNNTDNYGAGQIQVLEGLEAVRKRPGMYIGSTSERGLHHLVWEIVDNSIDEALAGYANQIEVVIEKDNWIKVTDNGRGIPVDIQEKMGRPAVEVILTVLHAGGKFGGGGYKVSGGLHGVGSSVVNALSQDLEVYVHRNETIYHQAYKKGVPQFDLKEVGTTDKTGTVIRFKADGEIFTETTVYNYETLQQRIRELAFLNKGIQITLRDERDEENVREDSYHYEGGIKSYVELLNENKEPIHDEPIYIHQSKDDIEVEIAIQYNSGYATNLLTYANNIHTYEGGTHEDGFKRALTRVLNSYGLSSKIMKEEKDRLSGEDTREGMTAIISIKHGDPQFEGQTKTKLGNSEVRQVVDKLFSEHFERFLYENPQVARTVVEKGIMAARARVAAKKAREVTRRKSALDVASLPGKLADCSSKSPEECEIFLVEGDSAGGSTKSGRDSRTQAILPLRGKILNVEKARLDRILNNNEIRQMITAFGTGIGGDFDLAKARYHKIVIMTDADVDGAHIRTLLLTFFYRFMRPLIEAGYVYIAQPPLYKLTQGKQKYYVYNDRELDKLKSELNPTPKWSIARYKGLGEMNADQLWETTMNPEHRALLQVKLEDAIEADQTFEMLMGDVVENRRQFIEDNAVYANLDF
S. aureus DNA gyrase, sequence (P20831 whole entry): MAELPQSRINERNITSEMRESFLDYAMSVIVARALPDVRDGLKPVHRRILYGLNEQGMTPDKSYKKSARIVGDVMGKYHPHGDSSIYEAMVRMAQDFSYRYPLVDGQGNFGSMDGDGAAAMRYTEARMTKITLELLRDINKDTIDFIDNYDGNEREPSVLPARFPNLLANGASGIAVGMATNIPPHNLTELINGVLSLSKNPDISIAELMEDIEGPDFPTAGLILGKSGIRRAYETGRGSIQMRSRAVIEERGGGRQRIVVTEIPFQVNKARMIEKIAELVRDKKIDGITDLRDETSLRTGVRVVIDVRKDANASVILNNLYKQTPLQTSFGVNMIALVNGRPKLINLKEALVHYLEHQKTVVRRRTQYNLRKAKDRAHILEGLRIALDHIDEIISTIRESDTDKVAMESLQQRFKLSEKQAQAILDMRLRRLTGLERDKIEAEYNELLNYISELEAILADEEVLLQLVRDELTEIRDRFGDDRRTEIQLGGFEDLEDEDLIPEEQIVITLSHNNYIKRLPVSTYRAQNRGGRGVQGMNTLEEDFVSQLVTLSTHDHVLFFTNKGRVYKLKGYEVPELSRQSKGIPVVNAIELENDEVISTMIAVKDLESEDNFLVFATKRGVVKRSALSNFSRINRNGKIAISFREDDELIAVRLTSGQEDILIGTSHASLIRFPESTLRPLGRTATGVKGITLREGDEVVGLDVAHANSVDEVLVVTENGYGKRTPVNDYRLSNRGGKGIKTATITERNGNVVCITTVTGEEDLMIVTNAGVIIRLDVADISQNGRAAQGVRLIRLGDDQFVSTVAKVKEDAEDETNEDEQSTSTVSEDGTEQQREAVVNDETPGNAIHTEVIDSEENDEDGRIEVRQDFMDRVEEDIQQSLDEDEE

Regarding `O=C(O)c1cn(C2CC2)c2cc(N3CCN(C(=O)CCCCBr)CC3)c(F)cc2c1=O` [Compound 11, 7-[4-(5-Bromopentanoyl)-piperazin-1-yl]-1-cyclopropyl-6-fluoro-4-oxo-1,4-dihydro-quinoline-3-carboxylic Acid], the IC50 is 16.2 µM in data set [1] and 12.1 µM in [2]. For the same molecule, the “dose that fully inhibited bacterial growth” value in [3] is not below 0.2 µg/mL. Also, the “concentration that inhibited bacterial cell growth” value in data set [4] is not below 0.025 µg/mL. In addition, in [5], the “eradication of the biofilm formed by E. coli” value was “approx. 20%”. The “elimination of the mature biofilm of S. aureus ATCC 6538” value in data set [6] is 19–25%. Also, the “fold more active than CP toward standard Staphylococci” value in data set [7] is 1.25–2.5 fold. For the same molecule, the “share of CP potency kept against standard Gram-negative rods” value in [8] came out at 60%. The MIC in data set [8] is 0.025 to 0.1 mg/L (≈ 0.0506 to 0.202 µM).

For `O=C(O)c1cn(C2CC2)c2cc(N3CCN(C(=O)CCl)CC3)c(F)cc2c1=O` [Compound 3, 7-[4-(2-Chloroacetyl)-piperazin-1-yl]-1-cyclopropyl-6-fluoro-4-oxo-1,4-dihydro-quinoline-3-carboxylic Acid], the “fold more effective than the reference tuberculostatics” value in [9] is listed as 8–32 fold. This molecule also showed an IC50 in [1] of 61.3 µM. The IC50 in data set [2] was 78.5 µM. This molecule registered a viability at 72 h in data set [10] of 75 ± 2.23%. In data set [11] (72 h, compound at IC50), the “Cell number (% of control)” value is on record as 12.15 % of control and the “Cell number x 10^6” value was 0.2 ± 0.01 x 10^6. The “impact on the number of live human keratinocytes” value in data set [11] (compounds at their IC50 for PC3 cells (2.02, 15.7, 4.8 μM)) was “negligible impact”. For the same molecule, in [12] (72 h, IC50 concentration), the “decrease of PC3 cell viability” value is reported as 48%. Besides, in data set [12] (PC3, 72 h, compound at IC50), the “Cell number (% of control)” value was 1.97 % of control, the “Cell number x 10^6” value was 0.04 ± 0.01 x 10^6 and the “Viability (%)” value is 52 ± 2.40%. Moreover, in [13], the “HaCaT cells in late apoptosis/necrosis” value is 47.23%. In [13] (HaCaT), the Dead cells stood at 9.99 ± 1.17%, the Early apoptosis came to 10.07 ± 1.22%, the Late apoptosis was 37.24 ± 2.27% and the Live cells is listed as 42.70 ± 2.81%. Also, in data set [14] (72 h), the “PC3 cells in late apoptosis or necrosis” value is 78.22%. In data set [14] (PC3, 72 h), the Dead cells is 66.10 ± 6.31%, the Early apoptosis came out at 1.51 ± 0.04%, the Late apoptosis worked out at 12.12 ± 2.18% and the Live cells is 20.27 ± 0.45%. For the same molecule, the “effect on IL-6 in human keratinocytes” value in data set [15] is on record as “stimulated human keratinocytes to produce IL-6”. For the same molecule, the “decrease of IL-6 release as compared to the control” value in [16] is given as 3.5 times. Further, the MIC in [8] is not above 1 mg/L.

As a reminder, the IC50 is the concentration that inhibits the measured activity by half. The MIC is the lowest concentration that inhibits growth of the organism. In general, viability refers to a per cent measure of how many cells are alive, often set against a control. Read a high viability as better survival.

(Values after publication PMC10233829 (ACS Omega, 2023).)
